Experimental data: PMC12040169 (PLOS Biology, 2025)

Assay: in vitro
Details: human, hela cells

| Structure (SMILES) | viability at 28.5 h, 10 µM |
| --- | --- |
| O=P(O)(O)/C=C(\Cl)c1ccccc1 [CBK261019] | 97.8% |

Same assay, conditions: human, hela cells, % viability

| Structure (SMILES) | viability at 28.5 h, 10 µM |
| --- | --- |
| O=S(=O)([O-])c1cc(S(=O)(=O)O)ccc1Nc1cc2c(nc3ccccc3[n+]2-c2ccccc2)c2ccccc12 [CBK260997N] | 102% |
| [N-]=[N+]=NC1C2OCC(O2)C(OCc2ccccc2)C1O (stereo not shown) [CBK261000] | 90.1% |
| CCOC(=O)CCCCNC(O)C(Cl)(Cl)Cl (stereo not shown) [CBK261003C] | 106% |
| CC1(C)C(N(O)C(=O)Nc2cccc3ccccc23)N(c2cccc3ccccc23)C(=O)N1CC(=O)NN (stereo not shown) [CBK261004] | 88.2% |
| O=C(O)C1CSC(c2ccccc2)N1 (stereo not shown) [CBK261008] | 114% |
| CN1C(=O)/C(=C2\SC(=S)N(C(CCC(=O)O)C(=O)O)C2=O)c2ccccc21 (stereo not shown) [CBK261010] | 92.3% |
| O=C(O)CCC(C(=O)O)N1C(=O)/C(=C\C(Cl)=C/c2ccc([N+](=O)[O-])cc2)SC1=S (stereo not shown) [CBK261011] | 92.1% |
| CN1C(=O)/C(=C2\SC(=S)N(C(CC(=O)O)C(=O)O)C2=O)c2ccccc21 (stereo not shown) [CBK261012] | 107% |
| O=C(O)CC(C(=O)O)N1C(=O)/C(=C\C(Cl)=C/c2ccc([N+](=O)[O-])cc2)SC1=S (stereo not shown) [CBK261013] | 99.2% |
| Nc1n[nH]c(CCCc2nc(N)n[nH]2)n1 [CBK261016] | 89.8% |
| c1ccc(-c2cc(-c3ccccc3)n3nc(Cc4nc5nc(-c6ccccc6)cc(-c6ccccc6)n5n4)nc3n2)cc1 [CBK261017] | 93.1% |
| CCC(=O)NC(N(Cc1ccccc1)Cc1ccccc1)C(Cl)(Cl)Cl (stereo not shown) [CBK261022] | 90.9% |
| O=C(NC(N1CCCCC1)C(Cl)(Cl)Cl)c1ccc(Cl)cc1Cl (stereo not shown) [CBK261024] | 91.6% |
| O=C(O)c1ccc(NC(S)=NC(NC(=O)c2ccco2)C(Cl)(Cl)Cl)cc1 (stereo not shown) [CBK261025] | 96.2% |
| CCC(=O)NC(NC(=S)Nc1cccc2cccnc12)C(Cl)(Cl)Cl (stereo not shown) [CBK261027] | 96.1% |
| NC(=O)COc1ccccc1O [CBK261029] | 111% |
| COc1ccc(OCc2nc3ccccc3[nH]2)cc1 [CBK261030] | 94.8% |
| O=C(NC1CCS(=O)(=O)C1)/C(=C\c1ccccc1)NC(=O)c1ccc([N+](=O)[O-])cc1 (stereo not shown) [CBK261034] | 106% |
| O=C(NC(C(=O)c1ccccc1)N1CCCCC1)c1ccccc1 (stereo not shown) [CBK261035] | 123% |

| Structure (SMILES) | viability at 28.5 h, 10 µM |
| --- | --- |
| O=C(NC(n1cnc2c(N3CCCCC3)ncnc21)C(Cl)(Cl)Cl)c1ccccc1 (stereo not shown) [CBK261038] | 98.5% |
| COc1cc(C(=O)NCC(=O)O)cc(OC)c1OC [CBK261039] | 89.9% |
| COc1ccc(C(=O)NCCc2nc3ccccc3[nH]2)cc1 [CBK261040] | 101% |
| O=C(COc1ccc(Cl)cc1)NNC(=O)c1cccnc1 [CBK261044] | 97.4% |
| O=C(/C=C/c1ccccc1)NC(NC(=S)Nc1cccc2cccnc12)C(Cl)(Cl)Cl (stereo not shown) [CBK261046] | 101% |
| CC(C)C(=O)NC(NC(=S)Nc1sc2c(c1C(N)=O)CCCC2)C(Cl)(Cl)Cl (stereo not shown) [CBK261050] | 94% |
| CC(C)(C)C(=O)NC(NC(=S)Nc1sc2c(c1C(N)=O)CCCC2)C(Cl)(Cl)Cl (stereo not shown) [CBK261052] | 94.7% |
| Cc1ccc(S(=O)(=O)N/N=C(/c2ccccc2)c2ccc(OCC(C)C)cc2)cc1 [CBK261056] | 87.8% |
| O=[N+]([O-])c1ccc(/C=N/CCCN2CCOCC2)cc1 [CBK261058] | 87.5% |
| CCOC(=O)/C(=N/Nc1cccc(C)c1)c1csc(N)n1 [CBK261059] | 97.9% |
| O=C(COc1ccc(Cl)cc1Cl)NC(Cc1ccccc1)C(=O)O (stereo not shown) [CBK261061] | 102% |
| O=C(O)CSc1c(NC(=O)c2ccccc2)sc2c1CCCC2 [CBK261062] | 97.5% |
| c1nncn1/N=C1/CCCc2nonc21 [CBK261065] | 91.8% |
| O=C(NC(=S)Nc1ccc(S(=O)(=O)Nc2nccs2)cc1)C12CC3CC(CC(C3)C1)C2 [CBK261067] | 101% |
| NC(=O)NS(=O)(=O)c1ccc(NC(=S)NC(=O)c2ccco2)cc1 [CBK261068] | 117% |
| Cc1nc2c([N+](=O)[O-])c3c(c([N+](=O)[O-])c2[nH]1)Nc1nonc1N3 [CBK261069] | 107% |
| CC(C)(C)N=C1c2nn(Cc3ccccc3)nc2C(=NC(C)(C)C)c2nn(Cc3ccccc3)nc21 [CBK261070] | 103% |
| CC(C)(C)c1cc(C(C)(C)C)cc(S(=O)(=O)CCc2ccccn2)c1 [CBK261073] | 88.4% |
| c1cc2c3c(ccc(CSCCc4ccncc4)c3c1)CC2 [CBK261074G] | 90.4% |

| Structure (SMILES) | viability at 28.5 h, 10 µM |
| --- | --- |
| O=C(O)c1ccccc1NC1SC(=O)N(c2ccccc2)C1=O (stereo not shown) [CBK261078] | 93.7% |
| O=C(O)CCC(=O)NNC(=O)c1ccccc1[N+](=O)[O-] [CBK261079] | 95.8% |
| O/N=C(\Cn1cncn1)c1ccc(Cl)cc1Cl [CBK261085] | 93.5% |
| COc1cc(-c2ccc(/N=C/c3ccccc3O)c(OC)c2)ccc1/N=C/c1ccccc1O [CBK261089] | 101% |
| CC(C)(C)NC(NC(=O)Cc1ccccc1)C(Cl)(Cl)Cl (stereo not shown) [CBK261090] | 86.5% |
| O=C(NC(NC1CCS(=O)(=O)C1)C(Cl)(Cl)Cl)c1ccc(Br)cc1 (stereo not shown) [CBK261091] | 98.2% |
| CN(C)CCO/N=C(\c1ccccc1)c1ccncc1 [CBK261095G] | 94.2% |
| O=C(O)c1cccc(NC(=O)c2c(C(=O)O)cccc2[N+](=O)[O-])c1 [CBK261096] | 99.6% |
| O=C(O)c1cccc(NCN2C(=O)c3ccc([N+](=O)[O-])cc3C2=O)c1 [CBK261100] | 96% |
| O=C(O)c1ccc(C(=O)O)c(-c2ccccc2)c1 [CBK261102] | 104% |
| CCOP(=O)(O)c1c([N+](=O)[O-])cc(C(F)(F)F)cc1[N+](=O)[O-] [CBK261106G] | 103% |
| CC(C)NCC(O)Cn1c2c(c3ccccc31)CCc1c-2cnn1-c1ccccc1 (stereo not shown) [CBK261107] | 99.6% |
| Nc1nonc1C(=NCc1ccccc1)NO [CBK261109] | 105% |
| NS(=O)(=O)c1ccc(Nc2nc3nonc3nc2Nc2ccc(S(N)(=O)=O)cc2)cc1 [CBK261110] | 97.5% |
| O=C(Nn1cnnc1)c1ccc(C(=O)Nn2cnnc2)cc1 [CBK261111] | 101% |
| O=C(NC(C(=O)N/N=C/c1ccc(Cl)cc1Cl)c1n[nH]c(=O)c2ccccc12)c1ccccc1 (stereo not shown) [CBK261118] | 103% |
| Cc1ccc(S(=O)(=O)Nc2cc(C)on2)cc1 [CBK261119] | 93.7% |
| O=C(CNc1ccc2ccccc2c1)N/N=C/c1cc2c(cc1[N+](=O)[O-])OCO2 [CBK261126] | 83.1% |
| O=C(Nc1cccc2nsnc12)c1cc(Cl)ccc1NS(=O)(=O)c1cccc2nsnc12 [CBK261129] | 80.9% |

Same assay, conditions: human, hela cells, % viability, bulk resorufin, single well

| Structure (SMILES) | viability at 28.5 h, 10 µM |
| --- | --- |
| CC(C)C(Nc1c([N+](=O)[O-])cc(C(F)(F)F)cc1[N+](=O)[O-])C(=O)O (stereo not shown) [CBK261041] | 96.4% |
| O=C1NC(=O)N(Cc2ccccc2)C(=O)/C1=N\Nc1ccc([N+](=O)[O-])cc1 [CBK261123] | 94.5% |
| CCOc1ccc(N2C(=O)NC(=O)/C(=C\NCCc3c[nH]c4ccccc34)C2=O)cc1 [CBK261125] | 104% |
